How the values were obtained:
[1] = target: T1, BTK-Btn (Homo sapiens, UniProt Q06187); test: TR-FRET competition binding assay, BTK-Btn with tracer TR 178 (low tracer / low kinase); parameters: 6xHis (N); made in house; host or cells: Sf-9 insect cells (baculovirus)
[2] = target: T1, BTK-Btn; test: TR-FRET competition binding assay, BTK-Btn with tracer AF647-staur; settings: read-out: FRET IC50, 0.5 nM BTK-Btn, 0.5 nM Eu-strept
[3] = target: T2, BTK (Homo sapiens, UniProt Q06187); test: Enzymatic assay for BTK (Caliper, peptide substrate); format: biochemical; settings: 5 nM BTK, 100 μM ATP; for IC50: […] peptide substrate, read-out: Enzyme IC50
T2 construct: mixed with 26 μL of purified full length BTK (final concentration of 5 nM); purchased Invitrogen (Carlsbad, Calif.)

[4] = 0.05 nM BTK-Btn and 0.5 nM TR 178
[5] = 0.05 nM BTK-Btn and 0.5 nM TR 178, read-out: Low kinase IC50
[6] = 0.05 nM TR 178 and 0.5 nM BTK-Btn
[7] = 0.05 nM TR 178 and 0.5 nM BTK-Btn, read-out: Low tracer IC50

T1 sequence (Q06187 whole entry): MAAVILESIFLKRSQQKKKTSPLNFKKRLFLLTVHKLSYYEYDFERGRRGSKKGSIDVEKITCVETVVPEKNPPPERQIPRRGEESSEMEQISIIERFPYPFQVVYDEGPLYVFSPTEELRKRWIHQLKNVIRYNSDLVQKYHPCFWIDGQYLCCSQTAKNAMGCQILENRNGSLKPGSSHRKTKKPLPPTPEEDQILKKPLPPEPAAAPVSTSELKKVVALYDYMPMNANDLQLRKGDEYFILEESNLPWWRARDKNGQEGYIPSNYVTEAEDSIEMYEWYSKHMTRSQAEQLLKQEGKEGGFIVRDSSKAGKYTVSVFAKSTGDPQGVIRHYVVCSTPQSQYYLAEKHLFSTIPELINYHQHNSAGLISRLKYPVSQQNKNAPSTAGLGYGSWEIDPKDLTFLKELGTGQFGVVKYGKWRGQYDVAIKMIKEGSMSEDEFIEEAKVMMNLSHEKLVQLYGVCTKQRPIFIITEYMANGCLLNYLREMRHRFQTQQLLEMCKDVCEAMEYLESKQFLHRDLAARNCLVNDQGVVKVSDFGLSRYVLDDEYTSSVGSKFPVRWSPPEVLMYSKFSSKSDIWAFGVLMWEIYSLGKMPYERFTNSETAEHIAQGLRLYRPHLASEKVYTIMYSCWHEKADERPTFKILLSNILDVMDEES
T2 sequence (Q06187 whole entry): as above

In the case of `Nc1ncnc2c1ncn2[C@@H]1O[C@H](COP(=O)(O)OP(=O)(O)O)[C@@H](O)[C@H]1O` [ADP], the “Low kinase nH” value [1, 4] is reported as 0.9 ± 0.1, the IC50 [1, 5] is reported as 200 ± 40 µM and the “Low tracer nH” value [1, 6] is reported as 0.7 ± 0.2. For the same compound, the IC50 [1, 7] was 40 ± 11 µM, the IC50 [2] was 46 ± 7 µM and the “Enzyme nH (hill slope of dose response curve)” value [3] was 1.0 ± 0.1. For the same compound, the IC50 [3] was > 100 µM.

`CC(O)=C(C#N)C(=O)Nc1cc(Br)ccc1Br` [LFM-A13, alpha-cyano-beta-hydroxy-beta-methyl-N-(2,5-dibromophenyl)propenamide] was tested, and the “Low kinase nH” value [1, 4] was 1.3 ± 0.1, the “Low tracer nH” value [1, 6] was 0.6 ± 0.2 and the “Enzyme nH (hill slope of dose response curve)” value [3] was 1.1 ± 0.1.

`CC(C)(C)n1nc(-c2ccc(Cl)cc2)c2c(N)ncnc21` [PP2] was tested, and the “Low kinase nH” value [1, 4] was 1.8 ± 0.1, the “Low tracer nH” value [1, 6] was 0.9 ± 0.1 and the “Enzyme nH (hill slope of dose response curve)” value [3] was 1.1 ± 0.1.

`N#CC(C#N)=Cc1cc(O)c(O)c(O)c1` [Tyrphostin 25] was tested, and the “Low kinase nH” value [1, 4] was 0.8 ± 0.1, the IC50 [1, 5] was 130 ± 10 µM and the “Low tracer nH” value [1, 6] was 0.6 ± 0.2. For the same compound, the IC50 [1, 7] was 45 ± 9 µM, the IC50 [2] was 48 ± 15 µM and the “Enzyme nH (hill slope of dose response curve)” value [3] was 0.6 ± 0.1. The IC50 [3] was > 100 µM.
